In general, IC50 refers to the concentration needed to halve the response being measured. The low end stands for inhibition by little substance, the high end for a need for much substance. Broadly, the GI50 is the concentration that inhibits growth by half.

In one assay the target is HDAC2 (Homo sapiens, UniProt Q92769). In words: HDAC biochemical activity measurement (fluorescent substrate deacetylation).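 Also: HDAC2 enzyme with an acetyl-lysine fluorescent substrate, then developer added, fluorescence read at excitation 360 nm and emission 460 nm, inhibition measured across several compound concentrations.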 The following applies: 37° C. 30 minutes.
For assay [1], the system named is A549 (human lung cancer cells). The assay is described as follows: MTT cancer cell growth inhibition. It is filed as cell-based. The following applies: Homo sapiens, A549, 72 h, MTT, 72 hours incubation; read-out: GI50 A54. The gist of the method: (§1)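 Three-day compound exposure (final 10^−5–10^−10 M, three replicate wells) of cells seeded at 1500 per well precedes a 4 h MTT incubation at 37° C. Viability is taken from 570 nm absorbance after DMSO solubilisation, and GI50 calculated from it.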

Assay [2] relates to BGC-823 (human gastric cancer cells). In words: MTT cancer cell growth inhibition. It is filed as cell-based. As to conditions: Homo sapiens, BGC-823, 72 h, MTT, 72 hours incubation; read-out: GI50 BG. The gist of the method:
as §1

Assay [3] deals with Bel-7402 (human hepatoma cells). The assay is described as follows: MTT cancer cell growth inhibition. It is filed as cell-based. As to conditions: Homo sapiens, Bel-7402, 72 h, MTT, 72 hours incubation, Bel-7402 cells; read-out: GI50 Bel-7402. Summed up:
as §1

Assay [4] concerns DU145 (human prostate cancer cells). The assay is described as follows: MTT cancer cell growth inhibition. It is filed as cell-based. The following applies: Homo sapiens, DU-145, 72 h, MTT, 72 hours incubation; read-out: GI50 Du1. Summed up:
as §1

Assay [5] deals with H1975 (non-small cell lung adenocarcinoma). In words: MTT cancer cell growth inhibition. It is filed as cell-based. As to conditions: Homo sapiens, NCI-H1975, 72 h, MTT, 72 hours incubation, H1975 cells; read-out: GI50 H1975. Summed up: as §1
Assay [6] deals with HCC827 (human non-small cell lung cancer cells). In words: MTT cancer cell growth inhibition. It is filed as cell-based. As to conditions: Homo sapiens, HCC827, 72 h, MTT, 72 hours incubation, HCC827 cells; read-out: GI50 HCC827. The gist of the method: as §1
In assay [7] the test system is HT1080 (human fibrosarcoma cells). In words: MTT cancer cell growth inhibition. It is filed as cell-based. As to conditions: Homo sapiens, HT-1080, 72 h, MTT, 72 hours incubation; read-out: GI50 HT1. The gist of the method:
as §1

For assay [8], the system named is Hela (human cervical cancer cells). In words: MTT cancer cell growth inhibition. It is filed as cell-based. As to conditions: Homo sapiens, HeLa, 72 h, MTT, 72 hours incubation; read-out: GI50 Hela. Summed up:
as §1

Assay [9] has as its system Huh-7 (human hepatoma cells). The assay is described as follows: MTT cancer cell growth inhibition. It is filed as cell-based. The following applies: Homo sapiens, Huh-7, 72 h, MTT, 72 hours incubation, Huh-7 cells; read-out: GI50 Huh-7. Summed up:
as §1

Assay [10] deals with K562 (human leukemia cells). The assay is described as follows: MTT cancer cell growth inhibition. It is filed as cell-based. The following applies: Homo sapiens, K562, 72 h, MTT, 72 hours incubation, K562 cells; read-out: GI50 K562. Summed up:
as §1

The test system of assay [11] is KBM5-T315I (human chronic myelogenous leukemia). The assay is described as follows: MTT cancer cell growth inhibition. It is filed as cell-based. The following applies: Homo sapiens, 72 h, MTT, 72 hours incubation, KBM5-T315I cells; read-out: GI50 KBM5-T315I. The gist of the method:
as §1

Assay [12] concerns MCF-7 (human breast cancer cells). The assay is described as follows: MTT cancer cell growth inhibition. It is filed as cell-based. The following applies: Homo sapiens, MCF7, 72 h, 72 hours incubation, read-out: GI50 MCF. Summed up:
as §1

Assay [13] relates to MDA-MB-231 (breast cancer cells). The assay is described as follows: MTT cancer cell growth inhibition. It is filed as cell-based. As to conditions: Homo sapiens, MDA-MB-231, 72 h, read-out: GI50 MDA-MB-231, MTT, 72 hours incubation, MDA-MB-231 cells. The gist of the method: as §1
The subject of assay [14] is MOLT-4 (human acute lymphoblastic leukemia cells). In words: MTT cancer cell growth inhibition. As to conditions: Homo sapiens, MOLT-4, 72 h, MTT, 72 hours incubation; read-out: GI50 Mol. It is filed as cell-based. The gist of the method: as §1
For assay [15], the system named is N-87 (human gastric cancer cells). In words: MTT cancer cell growth inhibition. It is filed as cell-based. The following applies: Homo sapiens, 72 h, MTT, 72 hours incubation, N-87 cells; read-out: GI50 N-87. The gist of the method:
as §1

The subject of assay [16] is PANC-1 (Pac-1, human pancreatic cancer cells). The assay is described as follows: MTT cancer cell growth inhibition. As to conditions: Homo sapiens, PANC-1, 72 h, MTT, 72 hours incubation; read-out: GI50 PAN. It is filed as cell-based. Summed up:
as §1

The test system of assay [17] is SGC-7901 (human gastric cancer cells). In words: MTT cancer cell growth inhibition. It is filed as cell-based. As to conditions: Homo sapiens, SGC-7901, 72 h, MTT, 72 hours incubation, SGC-7901 cells; read-out: GI50 SGC-7901. The gist of the method: as §1
Assay [18] deals with U937 (human leukemia cells). In words: MTT cancer cell growth inhibition. It is filed as cell-based. The following applies: Homo sapiens, U-937, 72 h, MTT, 72 hours incubation; read-out: GI50 U93. The gist of the method: as §1
The subject of assay [19] is lncap (prostate cancer cells). The assay is described as follows: MTT cancer cell growth inhibition. It is filed as cell-based. The following applies: Homo sapiens, LNCaP, 72 h, MTT, 72 hours incubation; read-out: GI50 lnca. The gist of the method: as §1
Assay [20] relates to KBM-5 (human chronic myelogenous leukemia). The assay is described as follows: MTT cancer cell growth inhibition. It is filed as cell-based. The following applies: Homo sapiens, KBM5, 72 h, MTT, 72 hours incubation, KBM-5 cells; read-out: GI50 KBM-5. The gist of the method:
as §1

The structures appear in SMILES notation.

Sequence of HDAC2 (Q92769 whole entry, species assumed): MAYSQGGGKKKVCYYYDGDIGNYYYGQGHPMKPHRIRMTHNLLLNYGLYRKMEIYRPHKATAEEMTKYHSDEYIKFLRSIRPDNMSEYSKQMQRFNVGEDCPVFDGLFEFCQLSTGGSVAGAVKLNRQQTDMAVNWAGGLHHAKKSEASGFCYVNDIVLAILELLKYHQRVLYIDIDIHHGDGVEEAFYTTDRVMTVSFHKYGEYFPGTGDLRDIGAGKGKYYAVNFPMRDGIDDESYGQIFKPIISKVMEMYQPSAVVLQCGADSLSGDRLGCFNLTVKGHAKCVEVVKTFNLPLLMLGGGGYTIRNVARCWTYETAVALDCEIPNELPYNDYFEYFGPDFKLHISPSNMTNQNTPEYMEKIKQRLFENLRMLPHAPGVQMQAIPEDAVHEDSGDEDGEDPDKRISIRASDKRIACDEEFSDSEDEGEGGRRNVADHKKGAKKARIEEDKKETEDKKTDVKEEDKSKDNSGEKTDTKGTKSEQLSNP

On to `C/C=C1\NC(=O)c2cccc(n2)CCNC(=O)C[C@@H](/C=C/CCSC(C)=O)OC(=O)[C@H](C(C)C)NC1=O` [Example 26], for which 64 nM corresponded to half-maximal inhibition against HDAC2 (IC50). Further, the 50% growth inhibitory concentration (GI50) came to 38900 nM in [1]; 5400 nM in assay [2]; 97 nM in assay [3]; 11700 nM in [4]; 31 nM in assay [5]; 55 nM in [6]. In addition, the GI50 in assay [7] is 18000 nM; in assay [8], 37000 nM; in assay [9], 51 nM; in assay [10], 17 nM; in assay [11], 31 nM; in assay [12] it was 53700 nM. Also, the GI50 in assay [13] was 98 nM; in assay [14], 3350 nM; in assay [15], 39 nM; in [16], 770 nM; in [17] it was 37 nM; in assay [18] it was 9500 nM. In [19], the concentration for 50% growth inhibition (GI50) came to 9000 nM.

On to `C/C=C1\NC(=O)c2cccc(n2)CNC(=O)C[C@@H](/C=C/CCSC(=O)CC)OC(=O)[C@H](C(C)C)NC1=O` [Compound 6], for which, on HDAC2, the half-maximal inhibitory concentration (IC50) was determined as 59 nM. Besides, the GI50 worked out at 60 nM in assay [1]; 70 nM in assay [2]; 86 nM in [3]; 13 nM in assay [5]; 65 nM in [6]; 80 nM in assay [7]. For the same compound, the GI50 in assay [8] was 60 nM; in [9], 58 nM; in assay [10] it was 33 nM; in assay [20] it was 61 nM; in assay [11], 41 nM; in assay [12], 60 nM. Besides, the GI50 was found to be 84 nM in [13], 28 nM in [15], 60 nM in assay [16] and 51 nM in assay [17].

`C/C=C1\NC(=O)c2cccc(n2)CNC(=O)C[C@@H](/C=C/CCSC(=O)CCCC)OC(=O)[C@H](C(C)C)NC1=O` [Compound 4]: the IC50 on HDAC2 was 251 nM. Further, the 50% growth inhibitory concentration (GI50) in [1] worked out at 50 nM; in [2] it was 60 nM; in assay [3], 92 nM; in assay [5] it was 31 nM; in [6], 22 nM; in assay [7], 70 nM. Further, the GI50 in [8] came out at 50 nM; in assay [9], 86 nM; in assay [10], 61 nM; in assay [20], 74 nM; in assay [11] it was 22 nM; in assay [12] it was 40 nM. For the same compound, the concentration for 50% growth inhibition (GI50) in [13] was determined as 86 nM; in assay [15] it was 53 nM; in assay [16] it was 60 nM; in assay [17], 34 nM.

Turning to `C/C=C1\NC(=O)c2cccc(n2)CNC(=O)C[C@@H](/C=C/CCSC(=O)CCC)OC(=O)[C@H](C(C)C)NC1=O` [Compound 5], the IC50 on HDAC2 turned out to be 53 nM. The concentration for 50% growth inhibition (GI50) was 50 nM in assay [1]; 60 nM in [2]; 93 nM in assay [3]; 23 nM in assay [5]; 55 nM in assay [6]; 70 nM in assay [7]. Besides, the GI50 in [8] was determined as 50 nM; in [9] it was 72 nM; in [10] it was 32 nM; in assay [20], 72 nM; in assay [11], 33 nM; in assay [12], 40 nM. In addition, the concentration for 50% growth inhibition (GI50) in [13] worked out at 82 nM; in assay [15], 37 nM; in assay [16] it was 60 nM; in assay [17] it was 43 nM.

As to `C/C=C1\NC(=O)c2cc(F)cc(n2)CNC(=O)C[C@@H](/C=C/CCSC(=O)CCC)OC(=O)[C@H](C(C)C)NC1=O` [Compound 43], half-maximal inhibition at HDAC2 (IC50) required 51 nM. Besides, the GI50 amounted to 50 nM in [1]; 30 nM in assay [2]; 73 nM in assay [3]; 50 nM in [4]; 62 nM in assay [5]; 70 nM in assay [7]. Also, the concentration for 50% growth inhibition (GI50) came out at 80 nM in assay [8]; 36 nM in assay [9]; 52 nM in [10]; 81 nM in [20]; 54 nM in [11]; 50 nM in [12]. Also, the GI50 was determined as 36 nM in assay [13]; 30 nM in [14]; 38 nM in assay [15]; 52 nM in assay [17]; 60 nM in [18]; 30 nM in assay [19].

The compound `C/C=C1\NC(=O)c2cccc(n2)CNC(=O)C[C@@H](/C=C/CCSC=O)OC(=O)[C@H](C(C)C)NC1=O` [Compound 8] registered an IC50 on HDAC2 of 162 nM. The 50% growth inhibitory concentration (GI50) in assay [1] turned out to be 80 nM; in assay [2], 90 nM; in assay [3], 94 nM; in [5] it was 38 nM; in assay [6], 41 nM; in assay [7], 90 nM. In addition, the GI50 in assay [8] was determined as 70 nM; in assay [9], 61 nM; in [10], 53 nM; in [20], 51 nM; in [11], 63 nM; in assay [12], 80 nM. Further, the 50% growth inhibitory concentration (GI50) amounted to 93 nM in assay [13], 34 nM in [15], 80 nM in [16] and 43 nM in assay [17].

Turning to `C/C=C1\NC(=O)c2cccc(n2)CNC(=O)C[C@@H](/C=C/CCSC(C)=O)OC(=O)[C@H](C)NC1=O` [Compound 12], at HDAC2, the midpoint of inhibition, the IC50, lay at 54 nM. For the same compound, the concentration for 50% growth inhibition (GI50) in assay [1] amounted to 70 nM; in [2] it was 90 nM; in assay [3] it was 72 nM; in assay [5], 41 nM; in assay [6] it was 37 nM; in assay [7] it was 60 nM. Besides, the GI50 was 50 nM in assay [8]; 86 nM in assay [9]; 24 nM in assay [10]; 72 nM in [20]; 31 nM in [11]; 60 nM in assay [12]. The GI50 amounted to 84 nM in assay [13], 28 nM in [15], 80 nM in assay [16] and 36 nM in [17].

As to `C/C=C1\NC(=O)c2cc(F)cc(n2)CNC(=O)C[C@@H](/C=C/CCSC(=O)CCCCCCC)OC(=O)[C@H](Cc2ccccc2)NC1=O` [Compound 70], the 50% inhibitory concentration (IC50) against HDAC2 was found to be 43 nM. Further, the GI50 in assay [1] stood at 40 nM; in [2] it was 50 nM; in assay [4], 50 nM; in assay [5] it was 62 nM; in assay [8] it was 90 nM; in assay [9] it was 36 nM. Further, the GI50 in [10] turned out to be 52 nM; in [20], 93 nM; in [11], 37 nM; in assay [12], 30 nM; in assay [13], 36 nM; in assay [14], 30 nM. Moreover, the 50% growth inhibitory concentration (GI50) was 53 nM in assay [15], 43 nM in [17], 60 nM in assay [18] and 30 nM in assay [19].

The values above are taken from patent US10065990B2, “Cyclic peptide compound, and preparation method, pharmaceutical composition and use thereof” (HANGZHOU GUANYU BIO-MEDICAL CO., LTD, priority 2013, dated 2018).
